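These data come from cells grown in 96-well plates and exposed to compound for 48 hours at five concentrations. GI50 = concentration required for 50% inhibition of growth. TGI: concentration producing complete growth inhibition.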 Where a SMILES comes first, the peptide text is derived from it. The star is where a group is joined. Boc = CC(C)(C)OC(=O)* A value given as a limit tells only on which side of the number the result lay.

This is an account of results in PubChem BioAssay (NCI).

In the first assay the test system is KM12 colon. As to the kind of experiment: NCI tumour cell line growth inhibition, 48 h.
`CCN(CCO)CC1COc2ccccc2O1` (centres undefined) gave a TGI of more than 100 µM.
The compound `O=c1oc(-c2ccc(O)c(O)c2)cc2cccc(O)c12` came in with a TGI of 32.1 µM.
On to `COc1cc2c(cc1-c1c(C)noc1C)cc(C)c(=O)n2Cc1ccccn1`, for which the GI50 is 7.77 µM and the TGI was more than 100 µM.
As to `CCOC(=O)c1c(-c2ccc(OC)cc2)c(C#N)c(=S)n(C2OC(COC(C)=O)C(OC(C)=O)C(OC(C)=O)C2OC(C)=O)c1C` (centres undefined), the TGI was more than 100 µM.
Same read-out and setting: under `C1=CC2=CC=CC3c4nc5ccc6ccccc6c5nc4C(=C1)C23` (centres undefined) stands more than 100 µM.
Turning to `O=C(NCCCN(CCCCN(CCCNC(=O)C(F)(F)F)Cc1ccccc1)Cc1ccccc1)C(F)(F)F`, the TGI was found to be 25.9 µM.
Same read-out and setting: under `O=C1/C(=C\c2cccc(Oc3ccccc3)c2)S(=O)(=O)C(c2ccccc2)N1Cc1ccccc1` (centres undefined) stands 56.8 µM.
In turn, `O=C(N=Nc1cc(Cl)ccc1Cl)NNc1cc(Cl)ccc1Cl` showed a TGI of 33.9 µM.
For `CCOC(=O)NC(=S)NN(C)C1=NCC(C)(C)S1`, the TGI is more than 100 µM.
As for `CC(C)(C)OC(=O)NCC(=O)NCC(=O)NCC(=O)NCC(=O)O` (Boc-GGGG-OH), the TGI was more than 100 µM.
`COc1cc(C2SCC(=O)N2c2ccc(NC(=O)c3ccc(N4C(=O)CSC4c4cc(OC)c(OC)c(OC)c4)cc3)cc2)cc(OC)c1OC` (centres undefined) had a TGI of more than 100 µM.

In the next assay the test system is NCI-H226 lung. As to the kind of experiment: NCI tumour cell line growth inhibition, 48 h.
On to `O=P(c1ccccc1)(c1ccccc1)N1O[C@@H](c2ccccc2)C=C[C@H]1c1ccccc1`, for which the TGI came to 29.4 µM.
The same measure, in the same setting: under `COC(=O)[C@]12CC[C@H]3CN(C(=O)OCc4ccccc4)[C@H]([C@H]31)[C@H](c1ccco1)N2S(=O)(=O)c1ccc(C)cc1` stands 58.7 µM; under `O=C1C[C@H](Sc2ccccc2)C2(OCCO2)[C@@H](Sc2ccccc2)C1`, 6.03 µM.
`CCCNC(=O)CCC(C)[C@H]1CCC2C3C(C[C@H](OC(C)=O)[C@@]21C)[C@@]1(C)CCC2(C[C@H]1C[C@H]3OC(C)=O)OOC1(CCC(C)CC1)OO2` (some centres undefined) had a TGI of more than 100 µM.
As to `CCN(C(=S)N[C@@H](Cc1ccccc1)C(=O)N[C@@H](CC(C)C)C(=O)OC)c1ccccc1`, the TGI is more than 100 µM.
Same read-out and setting: next, `CCCn1c(CN(Cc2nc3ccccc3n2CCC)Cc2nc3ccccc3n2CCC)nc2ccccc21`: 27.3 µM; `CSc1c(C#N)c(N)n2c1C(=O)N(c1ccccc1)C2=S`: more than 100 µM; `N#CCCN(CCC#N)c1ccc(/C=C2\N=C(c3ccccc3)N(c3ccc(Cl)cc3)C2=O)cc1`: more than 100 µM.
`Cc1c(S(=O)(=O)/N=C(\N)Nc2ccc(Cl)cc2)sc2ccc(Cl)cc12` gave a TGI of 44 µM.
The compound `NNC(=O)c1ccc[n+](CCc2ccccc2)c1` showed a TGI of more than 100 µM.
The same measure, in the same setting: next, `COc1cc(NS(C)(=O)=O)ccc1N1Cc2cnc3ccc4[nH]c(C)cc1c4c23`: more than 100 µM; `O=C1CN2C(c3ccccc3)=NN(c3ccc([N+](=O)[O-])cc3)C2(c2ccccc2)c2cc(Cl)ccc2N1CC1CC1` (centres undefined): more than 100 µM.
In the case of `COc1ccc2cc3c4cc5c(cc4cc[n+]3cc2c1OC)OCO5`, the TGI is more than 100 µM.
Consider `CCN(CCO)CC1COc2ccccc2O1` (centres undefined), for which the TGI was more than 100 µM.
For the compound `COc1ccc2nc3cc(Cl)ccc3c(NCCCNCCCNc3c4ccc(Cl)cc4nc4ccc(OC)cc34)c2c1`, the TGI turned out to be 0.177 µM.
As for `O=c1oc(-c2ccc(O)c(O)c2)cc2cccc(O)c12`, the GI50 is 15.2 µM and the TGI stood at 58.7 µM.
In the case of `COc1cc2c(cc1-c1c(C)noc1C)cc(C)c(=O)n2Cc1ccccn1`, the GI50 was 1.59 µM and the TGI is more than 100 µM.
In turn, `CCOC(=O)c1c(-c2ccc(OC)cc2)c(C#N)c(=S)n(C2OC(COC(C)=O)C(OC(C)=O)C(OC(C)=O)C2OC(C)=O)c1C` (centres undefined) registered a TGI of more than 100 µM.
`C1=CC2=CC=CC3c4nc5ccc6ccccc6c5nc4C(=C1)C23` (centres undefined) showed a TGI of more than 100 µM.
As for `O=C(NCCCN(CCCCN(CCCNC(=O)C(F)(F)F)Cc1ccccc1)Cc1ccccc1)C(F)(F)F`, the TGI is 34.4 µM.
For `C/C=C/C=C/c1nc(C#N)c(N)o1`, the TGI was more than 100 µM.

In another assay the test system is HOP-92 NSCLC. Description: NCI tumour cell line growth inhibition, 48 h.
The compound `O=P(c1ccccc1)(c1ccccc1)N1O[C@@H](c2ccccc2)C=C[C@H]1c1ccccc1` gave a TGI of 25.6 µM.
Compound `COC(=O)[C@]12CC[C@H]3CN(C(=O)OCc4ccccc4)[C@H]([C@H]31)[C@H](c1ccco1)N2S(=O)(=O)c1ccc(C)cc1` came in with a TGI of 56.1 µM.
Consider `O=C1C[C@H](Sc2ccccc2)C2(OCCO2)[C@@H](Sc2ccccc2)C1`, for which the TGI is 5.74 µM.
The same measure, in the same setting: next, `CCCNC(=O)CCC(C)[C@H]1CCC2C3C(C[C@H](OC(C)=O)[C@@]21C)[C@@]1(C)CCC2(C[C@H]1C[C@H]3OC(C)=O)OOC1(CCC(C)CC1)OO2` (some centres undefined): 1.98 µM; `CCN(C(=S)N[C@@H](Cc1ccccc1)C(=O)N[C@@H](CC(C)C)C(=O)OC)c1ccccc1`: more than 100 µM.
For `CCCn1c(CN(Cc2nc3ccccc3n2CCC)Cc2nc3ccccc3n2CCC)nc2ccccc21`, the TGI was 13.3 µM.
Compound `CSc1c(C#N)c(N)n2c1C(=O)N(c1ccccc1)C2=S` showed a TGI of more than 100 µM.
On the same count and under the same terms, under `N#CCCN(CCC#N)c1ccc(/C=C2\N=C(c3ccccc3)N(c3ccc(Cl)cc3)C2=O)cc1` stands more than 100 µM; under `Cc1c(S(=O)(=O)/N=C(\N)Nc2ccc(Cl)cc2)sc2ccc(Cl)cc12`, 42.2 µM.
Compound `NNC(=O)c1ccc[n+](CCc2ccccc2)c1` registered a TGI of more than 100 µM.
In turn, `COc1cc(NS(C)(=O)=O)ccc1N1Cc2cnc3ccc4[nH]c(C)cc1c4c23` had a TGI of more than 100 µM.
In turn, `O=C1CN2C(c3ccccc3)=NN(c3ccc([N+](=O)[O-])cc3)C2(c2ccccc2)c2cc(Cl)ccc2N1CC1CC1` (centres undefined) had a TGI of more than 100 µM.
`COc1ccc2cc3c4cc5c(cc4cc[n+]3cc2c1OC)OCO5` returned a TGI of more than 90.4 µM.
As for `CCN(CCO)CC1COc2ccccc2O1` (centres undefined), the TGI is more than 100 µM.
The same measure, in the same setting: next, `COc1ccc2nc3cc(Cl)ccc3c(NCCCNCCCNc3c4ccc(Cl)cc4nc4ccc(OC)cc34)c2c1`: 0.347 µM; `O=c1oc(-c2ccc(O)c(O)c2)cc2cccc(O)c12`: 43.4 µM.
For `COc1cc2c(cc1-c1c(C)noc1C)cc(C)c(=O)n2Cc1ccccn1`, the GI50 was 0.473 µM and the TGI is 25.3 µM.
In the case of `CCOC(=O)c1c(-c2ccc(OC)cc2)c(C#N)c(=S)n(C2OC(COC(C)=O)C(OC(C)=O)C(OC(C)=O)C2OC(C)=O)c1C` (centres undefined), the TGI is 83.4 µM.
Turning to `C1=CC2=CC=CC3c4nc5ccc6ccccc6c5nc4C(=C1)C23` (centres undefined), the TGI was more than 100 µM.
Still for that read-out and setting: under `O=C(NCCCN(CCCCN(CCCNC(=O)C(F)(F)F)Cc1ccccc1)Cc1ccccc1)C(F)(F)F` stands 38.1 µM.
Same read-out and setting: under `O=C1/C(=C\c2cccc(Oc3ccccc3)c2)S(=O)(=O)C(c2ccccc2)N1Cc1ccccc1` (centres undefined) stands 73.3 µM.
As to `O=C(N=Nc1cc(Cl)ccc1Cl)NNc1cc(Cl)ccc1Cl`, the TGI turned out to be 32.9 µM.
In turn, `CCOC(=O)NC(=S)NN(C)C1=NCC(C)(C)S1` yielded a TGI of more than 100 µM.
For `C/C=C/C=C/c1nc(C#N)c(N)o1`, the TGI was more than 100 µM.
Consider `CC(C)(C)OC(=O)NCC(=O)NCC(=O)NCC(=O)NCC(=O)O` (Boc-GGGG-OH), for which the TGI is more than 100 µM.
`COc1cc(C2SCC(=O)N2c2ccc(NC(=O)c3ccc(N4C(=O)CSC4c4cc(OC)c(OC)c(OC)c4)cc3)cc2)cc(OC)c1OC` (centres undefined) came in with a TGI of 79.1 µM.

The test system of the next assay is SNB-19 CNS. As to the kind of experiment: NCI tumour cell line growth inhibition, 48 h.
On to `O=P(c1ccccc1)(c1ccccc1)N1O[C@@H](c2ccccc2)C=C[C@H]1c1ccccc1`, for which the TGI was determined as 30 µM.
Turning to `COC(=O)[C@]12CC[C@H]3CN(C(=O)OCc4ccccc4)[C@H]([C@H]31)[C@H](c1ccco1)N2S(=O)(=O)c1ccc(C)cc1`, the TGI is more than 100 µM.
